Assay results: patent US20190315806A1, “POLYMYXIN DERIVATIVE, PREPARATION METHOD AND APPLICATION THEREOF” (priority 2016, published 2019)
≈ marks a conversion by molar mass, not a printed value. Where a SMILES comes first, the peptide text is derived from it. Bridges are numbered along the chain shown (N, C = ends). [ ]: non-standard residue; d: D form. The star is where a group is joined. dPhe(4-tBu) = CC(C)(C)c1ccc(C[C@@H](N)C(=O)O)cc1; dPhe(4-CF3) = N[C@H](Cc1ccc(C(F)(F)F)cc1)C(=O)O; dBpa = N[C@H](Cc1ccc(C(=O)c2ccccc2)cc1)C(=O)O; dPhe(3-Cl) = N[C@H](Cc1cccc(Cl)c1)C(=O)O; dPhe(4-Me) = Cc1ccc(C[C@@H](N)C(=O)O)cc1; dPhe(2-Cl) = N[C@H](Cc1ccccc1Cl)C(=O)O; X2 = CC[C@H](C)CCCCC(=O)*; dDab = NCC[C@@H](N)C(=O)O; Octanoyl = CCCCCCCC(=O)*; Dab = NCC[C@H](N)C(=O)O

How the values were obtained:
Format in all cases: cell-based
[1] = test system: Klebsiella pneumoniae ATCC BAA-2146 (NDM-1); assay: Antibacterial activity, MIC by dish double dilution method; conditions: ATCC BAA-2146
Procedure: (§1) The minimum inhibitory concentration (MIC) was determined by means of dish double dilution method using a Multipoint inoculator according to the CLSI recommended method. The compounds of the present invention (for example, the compounds prepared in the Embodiments) and the reference substances were diluted twice each time with the broth into various desired concentrations, and appropriate amounts were added to the dishes. Agar medium is melted, and then quantitatively injected into the dish containing the drug solution, and mixed. The final concentrations of the compounds of the invention (e.g., the compounds prepared in the Embodiments) and the controls were 0.03, 0.06, 0.125, 0.25 . . . 128 μg/mL, respectively. The test bacteria were cultured overnight with nutrient broth, brain heart infusion or HTM broth. During the tests, the bacterial solutions were diluted appropriately, and the test bacteria (inoculation amount 10^4 CFU/dot) were inoculated on the surface of the drug-containing agar by a multi-point inoculator. After drying, the bacterial was incubated for 18 to 24 hours at 35° C., the results were observed, the minimum concentrations of the compounds of the present invention (for example, the compounds prepared in the Embodiments) and the controls contained in the dishes with no growth of colonies were MICs.
(§2) The strains used in the antibacterial activity experiments were from the American Type Culture Collection (ATCC) and clinical isolates.
(§3) The strains used for the experiments on antibacterial activity included Escherichia coli ATCC 25922, Klebsiella pneumoniae ATCC BAA-2146 (NDM-1), Pseudomonas aeruginosa ATCC 27853, Acinetobacter baumannii ATCC 19606 and Staphylococcus epidermidis ATCC 12228.
(§4) Tested samples: polymyxin derivatives prepared according to the technical scheme of the present invention;
(§5) Controls: polymyxin B sulfate and colistin (polymyxin E sulfate).

[2] = test system: Escherichia coli ATCC 25922; conditions: ATCC 25922
Procedure: as §1, §2, §3, §4, §5

[3] = test system: Acinetobacter baumannii ATCC 19606; conditions: ATCC 19606
Procedure: as §1, §2, §3, §4, §5

[4] = test system: Staphylococcus epidermidis ATCC 12228; conditions: ATCC 12228
Procedure: as §1, §2, §3, §4, §5

[5] = test system: Pseudomonas aeruginosa ATCC 27853; conditions: ATCC 27853
Procedure: as §1, §2, §3, §4, §5

SMILES | MIC K. pneumoniae ATCC BAA-2146 (NDM-1) [1] [µg/mL] | MIC E. coli ATCC 25922 [2] [µg/mL] | MIC A. baumannii ATCC 19606 [3] [µg/mL] | MIC S. epidermidis ATCC 12228 [4] [µg/mL] | MIC P. aeruginosa ATCC 27853 [5] [µg/mL]
CC[C@H](C)CCCCC(=O)N[C@@H](CCN)C(=O)N[C@H](C(=O)N[C@@H](CCN)C(=O)N[C@H]1CCNC(=O)[C@H]([C@@H](C)O)NC(=O)[C@H](CCN)NC(=O)[C@H](CCN)NC(=O)[C@H](CC(C)C)NC(=O)[C@@H](Cc2ccccc2Cl)NC(=O)[C@H](CCN)NC1=O)[C@@H](C)O [Compound 18, (S)-6-methyloctanoyl-Dab-Thr-Dab-ring(4-10)[Dab-Dab-D-Phe(2-Cl)-Lue-Dab-Dab-Thr]] (X2-[Dab]T[Dab][Dab][Dab][dPhe(2-Cl)]L[Dab][Dab]T; lactam 4-C) | 2 (≈ 1.62 µM) | 1 (≈ 0.808 µM) | 0.5 (≈ 0.404 µM) | 4 (≈ 3.23 µM) | 2 (≈ 1.62 µM)
CC[C@H](C)CCCCC(=O)N[C@@H](CCN)C(=O)N[C@H](C(=O)N[C@@H](CCN)C(=O)N[C@H]1CCNC(=O)[C@H]([C@@H](C)O)NC(=O)[C@H](CCN)NC(=O)[C@H](CCN)NC(=O)[C@H](CC(C)C)NC(=O)[C@@H](Cc2cccc(Cl)c2)NC(=O)[C@H](CCN)NC1=O)[C@@H](C)O [Compound 19, (S)-6-methyloctanoyl-Dab-Thr-Dab-ring(4-10)[Dab-Dab-D-Phe(3-Cl)-Lue-Dab-Dab-Thr]] (X2-[Dab]T[Dab][Dab][Dab][dPhe(3-Cl)]L[Dab][Dab]T; lactam 4-C) | 2 (≈ 1.62 µM) | 1 (≈ 0.808 µM) | 0.5 (≈ 0.404 µM) | 4 (≈ 3.23 µM) | 2 (≈ 1.62 µM)
CC[C@H](C)CCCCC(=O)N[C@@H](CCN)C(=O)N[C@H](C(=O)N[C@@H](CCN)C(=O)N[C@H]1CCNC(=O)[C@H]([C@@H](C)O)NC(=O)[C@H](CCN)NC(=O)[C@H](CCN)NC(=O)[C@H](CC(C)C)NC(=O)[C@@H](Cc2ccc(C(F)(F)F)cc2)NC(=O)[C@H](CCN)NC1=O)[C@@H](C)O [Compound 23, (S)-6-methyloctanoyl-Dab-Thr-Dab-ring(4-10)[Dab-Dab-D-Phe(4-CF3)-Lue-Dab-Dab-Thr]] (X2-[Dab]T[Dab][Dab][Dab][dPhe(4-CF3)]L[Dab][Dab]T; lactam 4-C) | 2 (≈ 1.57 µM) | 1 (≈ 0.786 µM) | 1 (≈ 0.786 µM) | 8 (≈ 6.29 µM) | 2 (≈ 1.57 µM)
CC[C@H](C)CCCCC(=O)N[C@@H](CCN)C(=O)N[C@H](C(=O)N[C@@H](CCN)C(=O)N[C@H]1CCNC(=O)[C@H]([C@@H](C)O)NC(=O)[C@H](CCN)NC(=O)[C@H](CCN)NC(=O)[C@H](CC(C)C)NC(=O)[C@@H](Cc2ccc(OC)cc2)NC(=O)[C@H](CCN)NC1=O)[C@@H](C)O [Compound 24, (S)-6-methyloctanoyl-Dab-Thr-Dab-ring(4-10)[Dab-Dab-D-Phe(4-OCH3)-Lue-Dab-Dab-Thr]] (X2-[Dab]T[Dab][Dab][Dab][dY](Me)L[Dab][Dab]T; lactam 4-C) | 2 (≈ 1.62 µM) | 1 (≈ 0.811 µM) | 1 (≈ 0.811 µM) | 16 (≈ 13 µM) | 2 (≈ 1.62 µM)
CCOc1ccc(C[C@H]2NC(=O)[C@H](CCN)NC(=O)[C@@H](NC(=O)[C@H](CCN)NC(=O)[C@@H](NC(=O)[C@H](CCN)NC(=O)CCCC[C@@H](C)CC)[C@@H](C)O)CCNC(=O)[C@H]([C@@H](C)O)NC(=O)[C@H](CCN)NC(=O)[C@H](CCN)NC(=O)[C@H](CC(C)C)NC2=O)cc1 [Compound 25, (S)-6-methyloctanoyl-Dab-Thr-Dab-ring(4-10)[Dab-Dab-D-Phe(4-OEt)-Lue-Dab-Dab-Thr]] (X2-[Dab]T[Dab][Dab][Dab][dY](Et)L[Dab][Dab]T; lactam 4-C) | 2 (≈ 1.6 µM) | 1 (≈ 0.802 µM) | 2 (≈ 1.6 µM) | 16 (≈ 12.8 µM) | 2 (≈ 1.6 µM)
CC[C@H](C)CCCCC(=O)N[C@@H](CCN)C(=O)N[C@H](C(=O)N[C@@H](CCN)C(=O)N[C@H]1CCNC(=O)[C@H]([C@@H](C)O)NC(=O)[C@H](CCN)NC(=O)[C@H](CCN)NC(=O)[C@H](CC(C)C)NC(=O)[C@@H](Cc2ccc(C)cc2)NC(=O)[C@H](CCN)NC1=O)[C@@H](C)O [Compound 26, (S)-6-methyloctanoyl-Dab-Thr-Dab-ring(4-10)[Dab-Dab-D-Phe(4-CH3)-Lue-Dab-Dab-Thr]] (X2-[Dab]T[Dab][Dab][Dab][dPhe(4-Me)]L[Dab][Dab]T; lactam 4-C) | 2 (≈ 1.64 µM) | 1 (≈ 0.821 µM) | 0.5 (≈ 0.411 µM) | 8 (≈ 6.57 µM) | 2 (≈ 1.64 µM)
CC[C@H](C)CCCCC(=O)N[C@@H](CCN)C(=O)N[C@H](C(=O)N[C@@H](CCN)C(=O)N[C@H]1CCNC(=O)[C@H]([C@@H](C)O)NC(=O)[C@H](CCN)NC(=O)[C@H](CCN)NC(=O)[C@H](CC(C)C)NC(=O)[C@@H](Cc2ccc(C(C)(C)C)cc2)NC(=O)[C@H](CCN)NC1=O)[C@@H](C)O [Compound 27, (S)-6-methyloctanoyl-Dab-Thr-Dab-ring(4-10)[Dab-Dab-D-Phe(4-tBu)-Lue-Dab-Dab-Thr]] (X2-[Dab]T[Dab][Dab][Dab][dPhe(4-tBu)]L[Dab][Dab]T; lactam 4-C) | 4 (≈ 3.18 µM) | 2 (≈ 1.59 µM) | 8 (≈ 6.35 µM) | 8 (≈ 6.35 µM) | 4 (≈ 3.18 µM)
CC[C@H](C)CCCCC(=O)N[C@@H](CCN)C(=O)N[C@H](C(=O)N[C@@H](CCN)C(=O)N[C@H]1CCNC(=O)[C@H]([C@@H](C)O)NC(=O)[C@H](CCN)NC(=O)[C@H](CCN)NC(=O)[C@H](CC(C)C)NC(=O)[C@@H](Cc2ccc(C(=O)c3ccccc3)cc2)NC(=O)[C@H](CCN)NC1=O)[C@@H](C)O [Compound 29, (S)-6-methyloctanoyl-Dab-Thr-Dab-ring(4-10)[Dab-Dab-D-Phe(4-benzoyl)-Lue-Dab-Dab-Thr]] (X2-[Dab]T[Dab][Dab][Dab][dBpa]L[Dab][Dab]T; lactam 4-C) | 2 (≈ 1.53 µM) | 2 (≈ 1.53 µM) | 1 (≈ 0.765 µM) | 16 (≈ 12.2 µM) | 4 (≈ 3.06 µM)
CCCCCCCC(=O)N[C@@H](CCN)C(=O)N[C@H](C(=O)N[C@H](CCN)C(=O)N[C@H]1CCNC(=O)[C@H]([C@@H](C)O)NC(=O)[C@H](CCN)NC(=O)[C@H](CCN)NC(=O)[C@H]([C@@H](C)O)NC(=O)[C@@H](CC(C)C)NC(=O)[C@H](CCN)NC1=O)[C@@H](C)O [Compound 32, octanoyl-Dab-Thr-D-Dab-ring(4-10)[Dab-Dab-D-Leu-Thr-Dab-Dab-Thr]] (Octanoyl-[Dab]T[dDab][Dab][Dab][dL]T[Dab][Dab]T; lactam 4-C) | 0.5 (≈ 0.437 µM) | 0.5 (≈ 0.437 µM) | 0.5 (≈ 0.437 µM) | >128 | 1 (≈ 0.875 µM)
CCCCCCCC(=O)N[C@@H](CCN)C(=O)N[C@H](C(=O)N[C@@H](CO)C(=O)N[C@H]1CCNC(=O)[C@H]([C@@H](C)O)NC(=O)[C@H](CCN)NC(=O)[C@H](CCN)NC(=O)[C@H](CC(C)C)NC(=O)[C@@H](Cc2ccccc2)NC(=O)[C@H](CCN)NC1=O)[C@@H](C)O [Compound 54, octanoyl-Dab-Thr-Ser-ring(4-10)[Dab-Dab-D-Phe-Leu-Dab-Dab-Thr]] (Octanoyl-[Dab]TS[Dab][Dab][dF]L[Dab][Dab]T; lactam 4-C) | 1 (≈ 0.85 µM) | 0.5 (≈ 0.425 µM) | 0.5 (≈ 0.425 µM) | 64 (≈ 54.4 µM) | 1 (≈ 0.85 µM)
CCCCCCCC(=O)N[C@@H](CCN)C(=O)N[C@H](C(=O)N[C@H](CO)C(=O)N[C@H]1CCNC(=O)[C@H]([C@@H](C)O)NC(=O)[C@H](CCN)NC(=O)[C@H](CCN)NC(=O)[C@H]([C@@H](C)O)NC(=O)[C@@H](CC(C)C)NC(=O)[C@H](CCN)NC1=O)[C@@H](C)O [Compound 60, octanoyl-Dab-Thr-D-Ser-ring(4-10)[Dab-Dab-D-Leu-Thr-Dab-Dab-Thr]] (Octanoyl-[Dab]T[dS][Dab][Dab][dL]T[Dab][Dab]T; lactam 4-C) | 0.5 (≈ 0.442 µM) | 0.12 (≈ 0.106 µM) | 0.06 (≈ 0.0531 µM) | >128 | 2 (≈ 1.77 µM)
